± gives the expanded uncertainty stated by the source.
Assay: xn = mol fraction of the nth substance listed
Conditions: Liquid, Vibrating tube method

C=CC(C)(O)CCC=C(C)C (stereo not given) [3,7-dimethyl-1,6-octadien-3-ol] + CCO
mass density [kg/m3]
Conditions | x2 = 0 | x2 = 0.1129 | x2 = 0.1935 | x2 = 0.3045 | x2 = 0.4023 | x2 = 0.5121 | x2 = 0.6055 | x2 = 0.7008 | x2 = 0.8009 | x2 = 0.9009
283.15 K, 100 kPa | 869.2 ± 1.1 | 866.8 ± 1.1 | 865.6 ± 1.1 | 862.7 ± 1 | 859.9 ± 1 | 855.3 ± 1 | 850.3 ± 1 | 843.1 ± 1 | 832.7 ± 1 | 818.2 ± 1
283.15 K, 5000 kPa | 872.3 ± 1.1 | 869.9 ± 1.1 | 868.7 ± 1.1 | 866 ± 1.1 | 863.1 ± 1 | 858.5 ± 1 | 853.5 ± 1 | 846.5 ± 1 | 836.3 ± 1 | 822 ± 1
283.15 K, 10000 kPa | 875.2 ± 1.2 | 872.9 ± 1.1 | 871.7 ± 1.1 | 869 ± 1.1 | 866.1 ± 1 | 861.6 ± 1 | 856.8 ± 1 | 849.7 ± 1 | 839.6 ± 1 | 825.5 ± 1
283.15 K, 15000 kPa | 878.2 ± 1.2 | 875.9 ± 1.1 | 874.8 ± 1.1 | 872.1 ± 1.1 | 869.2 ± 1 | 864.8 ± 1 | 860.1 ± 1 | 853 ± 1 | 843.1 ± 1 | 829.2 ± 1
283.15 K, 20000 kPa | 881 ± 1.2 | 878.8 ± 1.1 | 877.6 ± 1.1 | 874.9 ± 1.1 | 872.1 ± 1.1 | 867.7 ± 1 | 862.9 ± 1 | 856.1 ± 1 | 846.3 ± 1 | 832.5 ± 1
298.15 K, 100 kPa | 856.9 ± 1.1 | 854.5 ± 1.1 | 853.4 ± 1.1 | 850.5 ± 1 | 847.6 ± 1 | 843 ± 1 | 838 ± 1 | 830.9 ± 1 | 820.6 ± 1 | 805.9 ± 1
298.15 K, 5000 kPa | 860.1 ± 1.1 | 857.8 ± 1.1 | 856.7 ± 1.1 | 853.9 ± 1.1 | 851 ± 1 | 846.5 ± 1 | 841.4 ± 1 | 834.6 ± 1 | 824.4 ± 1 | 809.9 ± 1
298.15 K, 10000 kPa | 863.5 ± 1.2 | 861.1 ± 1.1 | 860 ± 1.1 | 857.2 ± 1.1 | 854.4 ± 1 | 850 ± 1 | 845.1 ± 1 | 838.2 ± 1 | 828.1 ± 1 | 813.9 ± 1
298.15 K, 15000 kPa | 866.6 ± 1.2 | 864.3 ± 1.1 | 863.2 ± 1.1 | 860.5 ± 1.1 | 857.7 ± 1.1 | 853.2 ± 1 | 848.4 ± 1 | 841.6 ± 1 | 831.7 ± 1 | 817.7 ± 1
298.15 K, 20000 kPa | 869.6 ± 1.2 | 867.4 ± 1.1 | 866.3 ± 1.1 | 863.6 ± 1.1 | 860.8 ± 1.1 | 856.4 ± 1 | 851.7 ± 1 | 844.9 ± 1 | 835.1 ± 1 | 821.3 ± 1
313.15 K, 100 kPa | 844.1 ± 1.1 | 841.7 ± 1.1 | 840.6 ± 1.1 | 837.8 ± 1 | 834.7 ± 1 | 830.2 ± 1 | 825.3 ± 1 | 818 ± 1 | 807.9 ± 1 | 793.2 ± 1
313.15 K, 5000 kPa | 847.8 ± 1.1 | 845.4 ± 1.1 | 844.4 ± 1.1 | 841.6 ± 1.1 | 838.6 ± 1 | 834.1 ± 1 | 829.3 ± 1 | 822.3 ± 1 | 812.1 ± 1 | 797.7 ± 1
313.15 K, 10000 kPa | 851.3 ± 1.1 | 849 ± 1.1 | 847.9 ± 1.1 | 845.2 ± 1.1 | 842.3 ± 1 | 837.8 ± 1 | 833.1 ± 1 | 826.1 ± 1 | 816.1 ± 1 | 801.9 ± 1
313.15 K, 15000 kPa | 854.8 ± 1.2 | 852.5 ± 1.1 | 851.4 ± 1.1 | 848.7 ± 1.1 | 845.8 ± 1.1 | 841.4 ± 1 | 836.7 ± 1 | 829.8 ± 1 | 820 ± 1 | 806 ± 1
313.15 K, 20000 kPa | 858.1 ± 1.2 | 855.8 ± 1.1 | 854.8 ± 1.1 | 852.1 ± 1.1 | 849.2 ± 1.1 | 844.9 ± 1.1 | 840.2 ± 1 | 833.4 ± 1 | 823.7 ± 1 | 809.8 ± 1
328.15 K, 100 kPa | 831.3 ± 1.1 | 828.9 ± 1.1 | 827.8 ± 1.1 | 824.9 ± 1 | 821.8 ± 1 | 817.3 ± 1 | 812.3 ± 1 | 805.2 ± 1 | 794.9 ± 1 | 780.2 ± 1
328.15 K, 5000 kPa | 835.2 ± 1.1 | 832.9 ± 1.1 | 831.8 ± 1.1 | 828.9 ± 1.1 | 825.9 ± 1 | 821.4 ± 1 | 816.6 ± 1 | 809.5 ± 1 | 799.4 ± 1 | 784.9 ± 1
328.15 K, 10000 kPa | 839.1 ± 1.1 | 836.9 ± 1.1 | 835.8 ± 1.1 | 832.9 ± 1.1 | 829.9 ± 1 | 825.5 ± 1 | 820.6 ± 1 | 813.9 ± 1 | 803.9 ± 1 | 789.6 ± 1
328.15 K, 15000 kPa | 842.7 ± 1.2 | 840.5 ± 1.1 | 839.4 ± 1.1 | 836.6 ± 1.1 | 833.7 ± 1.1 | 829.3 ± 1 | 824.5 ± 1 | 817.8 ± 1 | 808 ± 1 | 793.9 ± 1
328.15 K, 20000 kPa | 846.3 ± 1.2 | 844.1 ± 1.1 | 843 ± 1.1 | 840.3 ± 1.1 | 837.3 ± 1.1 | 833 ± 1.1 | 828.4 ± 1 | 821.6 ± 1 | 811.9 ± 1 | 798.1 ± 1
